Results as given in the NIST ThermoML archive (doi:10.1016/j.jct.2004.07.027).
± gives the expanded uncertainty stated by the source.

Assay: mn = molality of the nth substance listed, in mol/kg
Conditions: 350 kPa, Liquid, Extra sensitive DSC

C1COCCOCCOCCOCCOCCO1 [1,4,7,10,13,16-hexaoxacyclooctadecane] + O
apparent molar heat capacity [J/K/mol]
Conditions	278.15 K	283.15 K	288.15 K	293.15 K	298.15 K	303.15 K
m1 = 0.01001	748 ± 17	768 ± 12	788 ± 11	805.9 ± 9.8	820.2 ± 9.5	836.9 ± 9.2
m1 = 0.02001	740.4 ± 8.5	764.2 ± 6.1	782.4 ± 5.3	800.2 ± 4.8	817 ± 4.6	832.9 ± 4.4
m1 = 0.03002	741.5 ± 5.7	764.8 ± 4.1	783.2 ± 3.5	800.8 ± 3.2	817.3 ± 3.1	833.1 ± 3
m1 = 0.0401	742.3 ± 4.4	765.6 ± 3.1	785.4 ± 2.7	803.3 ± 2.5	820 ± 2.4	836.5 ± 2.3
m1 = 0.04995	746.2 ± 3.5	769.1 ± 2.5	788.8 ± 2.2	806.1 ± 2	822.2 ± 1.9	838.6 ± 1.9
m1 = 0.06015	746.9 ± 2.9	769.3 ± 2.1	788.7 ± 1.8	806 ± 1.7	822.4 ± 1.6	838.4 ± 1.5
m1 = 0.08002	744.3 ± 2.2	767.2 ± 1.6	786.6 ± 1.4	804.3 ± 1.3	820.7 ± 1.2	836.6 ± 1.1
m1 = 0.1224	740.8 ± 1.5	764.3 ± 1.1	784.29 ± 0.93	802.22 ± 0.86	819.28 ± 0.83	835.6 ± 0.8
m1 = 0.1472	738.5 ± 1.2	762.46 ± 0.93	782.67 ± 0.83	800.93 ± 0.76	818.39 ± 0.77	835.12 ± 0.75
m1 = 0.1935	734.51 ± 0.98	759.11 ± 0.76	779.7 ± 0.67	798.36 ± 0.61	816.04 ± 0.56	832.91 ± 0.55
m1 = 0.2925	725.83 ± 0.69	751.64 ± 0.55	773.51 ± 0.48	793.29 ± 0.44	811.91 ± 0.4	829.51 ± 0.39
